Data taken from the PolyMetriX glass transition set.
± gives the standard deviation of the reports.

| glass transition temperature | Structure (SMILES) |
| --- | --- |
| 270.00 °C | *c1cccc(C(=O)Nc2ccc(Oc3ccc(-c4ccc(Oc5ccc(NC(=O)c6cccc(N7C(=O)c8ccc(-c9ccc%10c(c9)C(=O)N(*)C%10=O)cc8C7=O)c6)cc5)cc4)cc3)cc2)c1 (repeat unit) |
| 395.00 °C | *Nc1ccc(-c2ccc(NC(=O)c3cccc(C(*)=O)c3)c(S)c2)cc1S (repeat unit) |
| 248.70 °C | *c1ccc(NC(=O)Nc2ccc(NC(=O)Nc3ccc(-c4nc(C#N)c(C#N)nc4*)cc3)cc2)cc1 (repeat unit) |
| 215.00 °C | *c1ccc(Oc2c(F)c(F)c(C(=O)c3c(F)c(F)c(Oc4ccc(C5(*)OC(=O)c6ccccc65)cc4)c(F)c3F)c(F)c2F)cc1 (repeat unit) |
| 198.00 °C | *CCCC(=O)Nc1ccc(Oc2ccc(NC(=O)CCCN3C(=O)c4ccc(C(=O)c5ccc6c(c5)C(=O)N(*)C6=O)cc4C3=O)cc2)cc1 (repeat unit) |
| 198.00 °C | *Oc1ccc(S(=O)(=O)c2ccc(Oc3ccc(C(=O)c4cc(C(=O)c5ccc(*)cc5)cc(C(C)(C)C)c4)cc3)cc2)cc1 (repeat unit) |
| 214.00 °C | *Oc1ccc(S(=O)(=O)c2ccc(Oc3ccc(-c4ccc(-c5ccc(*)c(C(F)(F)F)c5)cc4)cc3C(F)(F)F)cc2)cc1 (repeat unit) |
| 304.00 °C | *c1ccc(N(c2ccc(C#N)cc2)c2ccc(N3C(=O)c4ccc(Oc5ccc6c(c5)C(=O)N(*)C6=O)cc4C3=O)cc2)cc1 (repeat unit) |
| 115.00 °C | *CC(*)(C)C(=O)OCCOc1ccc(-c2ccc(-c3ccc(C#N)cc3)cc2)cc1 (repeat unit) |
| 304.00 °C | *Oc1ccc(NC(=O)c2ccc(NC(=O)c3ccc([Si](C)(C)c4ccc(C(=O)Nc5ccc(C(=O)Nc6ccc(*)cc6)cc5)cc4)cc3)cc2)cc1 (repeat unit) |
| 205.00 ± 3 °C | *c1cccc(Oc2cccc(Oc3cccc(N4C(=O)c5ccc(-c6ccc7c(c6)C(=O)N(*)C7=O)cc5C4=O)c3)c2)c1 (repeat unit) |
| 30.00 °C | *CC(*)C(=O)OCCCCCCOC(=O)c1ccc(OC(=O)c2ccc(C#N)cc2)cc1 (repeat unit) |
| 85.00 °C | *CC(O)COc1ccc(C(C)(C)c2ccc(OCC(O)COc3ccc(Oc4ccc(O*)cc4)cc3)cc2)cc1 (repeat unit) |
| 329.00 °C | *c1ccc(Oc2ccc(-n3c(=O)c4cc5c(=O)n(*)c(=O)c5cc4c3=O)cc2-c2ccccc2)cc1 (repeat unit) |
| 345.00 °C | *c1ccc(-c2cc(-c3ccc(OCCCC#N)cc3)cc(-c3ccc(-n4c(=O)c5cc6c(=O)n(*)c(=O)c6cc5c4=O)cc3)n2)cc1 (repeat unit) |
| 160.00 °C | *Oc1ccc(NC(=O)CCCCCCCC(=O)Nc2ccc(*)cc2)cc1 (repeat unit) |
| 147.00 °C | *CCN(CCOC(=O)c1cccc(C(=O)O*)c1)c1ccc(/N=N/c2ccc(-c3nc4ccc([N+](=O)[O-])cc4n3CC)cc2)cc1 (repeat unit) |
| 202.10 °C | *NNC(=O)c1ccccc1C(=O)Nc1cccc(/C=C2\CC/C(=C\c3cccc(NC(=O)c4ccccc4C(*)=O)c3)C2=O)c1 (repeat unit) |
| 200.50 °C | *Oc1ccc(Oc2ccc(NC(=O)c3ccc(Oc4ccc(Oc5ccc(C(=O)Nc6ccc(*)cc6)cc5)cc4-c4ccccc4)cc3)cc2)cc1-c1ccccc1 (repeat unit) |
| 305.00 °C | *Oc1ccc(NC(=O)c2cc(NC(=O)c3ccncc3)cc(C(=O)Nc3ccc(*)cc3)c2)cc1 (repeat unit) |
| 249.00 °C | *Oc1ccc(C(=O)Nc2ccc(Br)cc2-c2ccc(NC(=O)c3ccc(*)cc3)cc2)cc1 (repeat unit) |
| 369.00 °C | *C(=O)Nc1ccc(Oc2ccc(NC(=O)c3ccc4c(c3)C(=O)N(c3ccc(Oc5ccc(N6C(=O)c7ccc(*)cc7C6=O)cc5-c5ccccc5)c(-c5ccccc5)c3)C4=O)cc2-c2ccccc2)c(-c2ccccc2)c1 (repeat unit) |
| 315.10 °C | *c1ccc2c(c1)C(=O)N(c1ccc(C(c3ccc(N4C(=O)c5ccc(C(*)(C(F)(F)F)C(F)(F)F)cc5C4=O)cc3)(C(F)(F)F)C(F)(F)F)cc1)C2=O (repeat unit) |
| 267.50 °C | *C(=O)c1cc(C(=O)c2ccc3c(c2)C(=O)N(c2ccc(C(c4ccc(N5C(=O)c6ccc(*)cc6C5=O)cc4)(C(F)(F)F)C(F)(F)F)cc2)C3=O)cc(C(C)(C)C)c1 (repeat unit) |
| 58.00 °C | *CC(O)CN(C)S(=O)(=O)c1cccc(S(=O)(=O)N(C)CC(O)COc2ccc(-c3ccc(O*)cc3)cc2)c1 (repeat unit) |
| 255.00 °C | *C(=O)Nc1cc(NC(=O)c2cccc(*)n2)cc(-c2nnc(-c3ccccn3)o2)c1 (repeat unit) |
| 235.00 °C | *c1ccc(Oc2ccc(Oc3ccc(-c4cnc5ccc(-c6ccc7ncc(*)nc7c6)cc5n4)cc3)cc2)cc1 (repeat unit) |

Continued, molecule first:

| Structure (SMILES) | glass transition temperature |
| --- | --- |
| *CCCCCCCCCCCCNC(=O)CCCCCCCCCCCCC(=O)N* (repeat unit) | 49.00 °C |
| *Oc1c(Br)cc(C(C)(C)c2cc(Br)c(OC(*)=O)c(Br)c2)cc1Br (repeat unit) | 228.50 °C |
| *Oc1ccc(Oc2cccc(*)n2)c(C)c1 (repeat unit) | 89.00 °C |
| *CCOCCOC(=O)CCCCCCCC(=O)O* (repeat unit) | -71.00 °C |
| *C1C(=O)N(c2ccc(O[Si](CC)(CC)CC)cc2)C(=O)C1* (repeat unit) | 165.00 °C |
| */C=C/C(C)C* (repeat unit) | -35.00 °C |
| *CCCN(*)C(=O)CCCCC (repeat unit) | -16.00 °C |
| *Oc1ccc(CC(NC(=O)Cc2ccc(OC(=O)CC(C)CCC(*)=O)cc2)C(=O)OCC)cc1 (repeat unit) | 63.00 °C |
| *CC(*)C(=O)OCCCSCCC#N (repeat unit) | -58.00 °C |
| */C=C/c1sc(-c2ccc(-c3ccc(-c4sc(/C=C/C5=CC(=C(C#N)C#N)C=C(*)O5)c(CCCCCC)c4CCCCCC)s3)s2)c(CCCCCC)c1CCCCCC (repeat unit) | 112.00 °C |
| *CC(*)(C)C(=O)OCCNC(C)(C)C (repeat unit) | 41.00 °C |
| *Oc1c(Cl)cc(*)cc1Cl (repeat unit) | 176.82 °C |
| *O[Si](*)(CCCOCCOCCOCCOCCOCCOCCOCCOC)CCCOCCOCCOCCOCCOCCOCCOCCOC (repeat unit) | -66.40 °C |
| *CC(*)C(=O)Oc1ccccc1C(=O)OCC (repeat unit) | 30.00 °C |
| *c1cccc(N2C(=O)c3ccc(C(c4ccc5c(c4)C(=O)N(c4cccc(N6C(=O)c7ccc(-c8ccc9c(c8)C(=O)N(*)C9=O)cc7C6=O)c4)C5=O)(C(F)(F)F)C(F)(F)F)cc3C2=O)c1 (repeat unit) | 308.00 °C |
| *CCCCCCCCCCCCN1C(=O)c2ccc(Oc3ccc4c(c3)C(=O)N(*)C4=O)cc2C1=O (repeat unit) | 70.00 °C |
| *c1ccc(Cc2ccc(N3C(=O)c4ccc(S(=O)(=O)c5ccc6c(c5)C(=O)N(*)C6=O)cc4C3=O)c(C(C)(C)C)c2)cc1C(C)(C)C (repeat unit) | 336.00 °C |
| */C=C/C1C/C(=C\C)C(*)C1 (repeat unit) | 121.00 °C |
| *Nc1cccc(NC(=O)Cc2cc(C)c(CC(*)=O)cc2C)c1 (repeat unit) | 249.00 °C |

| Structure (SMILES) | glass transition temperature |
| --- | --- |
| *c1cc(C(=O)OCCCC)cc(N2C(=O)CC(C3Cc4ccccc4C4C(=O)N(*)C(=O)C43)C2=O)c1 (repeat unit) | 219.00 °C |
| *Nc1ccc(*)cc1 (repeat unit) | 75.30 °C |
| *ON(C(F)(F)F)C(F)(F)C(*)(F)SC(F)(F)F (repeat unit) | -48.00 °C |
| *O[Si](C)(CCC(F)(F)F)CCC(F)(F)C(F)(F)C(F)(F)C(F)(F)CC[Si](*)(C)CCC(F)(F)F (repeat unit) | -25.00 °C |
| *CC(*)(C)C(=O)OCCN(CC)c1ccc(/N=N/c2ccc([N+](=O)[O-])cc2)cc1 (repeat unit) | 126.00 °C |
| *Oc1ccc(C(C)c2ccc(OC(*)=S)cc2)cc1 (repeat unit) | 107.00 °C |
| *Oc1c(C)cc(C(C)(C)c2cc(C)c(OC(=O)CCCCCC(*)=O)c(C)c2)cc1C (repeat unit) | 84.00 °C |
| *CCc1ccc(*)c(Cl)c1 (repeat unit) | 75.00 °C |
| *CC(=O)OC(=O)COc1ccc(O*)cc1 (repeat unit) | 70.00 °C |
| *Oc1ccc(OC(=O)c2cccc(C(*)=O)c2)cc1 (repeat unit) | 186.00 °C |
| *C(=O)c1ccc(-c2ccc(C(C)(C)c3ccc(-c4ccc(C(=O)c5ccc6c(c5)C(=O)N(c5ccc(Cc7ccc(N8C(=O)c9ccc(*)cc9C8=O)cc7)cc5)C6=O)cc4)cc3)cc2)cc1 (repeat unit) | 216.00 °C |
| *OP(=O)(Oc1ccc(OC)cc1)Oc1ccc(S(=O)(=O)c2ccc(*)cc2)cc1 (repeat unit) | 81.00 °C |
| *c1ccc(Oc2ccc(C(c3ccc(Oc4ccc(N5C(=O)c6ccc7c8c(ccc(c68)C5=O)C(=O)N(*)C7=O)cc4)c(S(=O)(=O)O)c3)(C(F)(F)F)C(F)(F)F)cc2S(=O)(=O)O)cc1 (repeat unit) | 270.00 °C |
| *CC(F)(F)C1(F)C(*)CC(O)(C(F)(F)F)C1(F)F (repeat unit) | 152.00 °C |
| *c1ccc(OCCCCCCCCCCCOC(=O)CCCCCCCCC(=O)OCCCCCCCCCCCOc2ccc(-c3nnc(*)s3)cc2)cc1 (repeat unit) | 52.00 °C |
| *CCc1ccc(*)c2ccccc12 (repeat unit) | 160.00 °C |
| *CCCCOC(=O)OCCCCN1C(=O)c2ccc(-c3ccc4c(c3)C(=O)N(*)C4=O)cc2C1=O (repeat unit) | 104.00 °C |
| *c1ccc(-c2sc(-c3cc(CCCCCCCC)c(*)s3)cc2CCCCCCCC)cc1 (repeat unit) | 50.40 °C |
